Laboratory results taken from PMC7736581, “Activation of the IRE1 RNase through remodeling of the kinase front pocket by ATP-competitive ligands” (Nature Communications, 2020).

Assays:
Test in all cases: biochemical
Design in all cases: Invitrogen kinase panel: Z'Lyte activity (ATP at Km) or LanthaScreen competitive ATP-site binding, percent inhibition
Fgr = Fgr (Homo sapiens, UniProt P09769)
JAK1 = JAK1 (Homo sapiens, UniProt P23458)
IKK_beta = target: T1, IKK_beta (Homo sapiens, UniProt O14920)
T1 construct: gene IKBKB
T1 sequence (O14920 1-756): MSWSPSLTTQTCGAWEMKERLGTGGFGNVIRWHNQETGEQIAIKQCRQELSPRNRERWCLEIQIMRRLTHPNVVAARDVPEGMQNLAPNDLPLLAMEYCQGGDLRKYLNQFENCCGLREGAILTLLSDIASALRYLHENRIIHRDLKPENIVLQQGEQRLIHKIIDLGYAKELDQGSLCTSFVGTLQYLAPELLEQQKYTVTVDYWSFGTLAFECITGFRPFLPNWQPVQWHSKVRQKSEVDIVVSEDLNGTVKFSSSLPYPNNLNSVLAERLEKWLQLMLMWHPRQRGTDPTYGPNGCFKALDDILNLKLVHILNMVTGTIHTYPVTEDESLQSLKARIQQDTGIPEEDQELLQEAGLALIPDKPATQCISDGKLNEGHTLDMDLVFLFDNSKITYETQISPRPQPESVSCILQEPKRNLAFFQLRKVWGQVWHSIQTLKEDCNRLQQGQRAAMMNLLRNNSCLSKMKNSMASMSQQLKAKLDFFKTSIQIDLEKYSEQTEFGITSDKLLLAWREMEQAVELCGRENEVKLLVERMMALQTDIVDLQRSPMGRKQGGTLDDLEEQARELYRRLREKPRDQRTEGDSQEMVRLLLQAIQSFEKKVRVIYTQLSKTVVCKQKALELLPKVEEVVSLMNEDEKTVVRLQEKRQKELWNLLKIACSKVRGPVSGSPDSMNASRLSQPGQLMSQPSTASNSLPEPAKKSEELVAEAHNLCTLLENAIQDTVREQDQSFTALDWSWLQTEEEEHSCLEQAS

CHK2 = target: T2, CHK2 (Homo sapiens, UniProt O96017)
T2 construct: gene CHEK2

CDK5/p25 = target: T3, CDK5/p25 (Homo sapiens, UniProt Q00535)
T3 construct: p25
T3 sequence (Q00535 whole entry): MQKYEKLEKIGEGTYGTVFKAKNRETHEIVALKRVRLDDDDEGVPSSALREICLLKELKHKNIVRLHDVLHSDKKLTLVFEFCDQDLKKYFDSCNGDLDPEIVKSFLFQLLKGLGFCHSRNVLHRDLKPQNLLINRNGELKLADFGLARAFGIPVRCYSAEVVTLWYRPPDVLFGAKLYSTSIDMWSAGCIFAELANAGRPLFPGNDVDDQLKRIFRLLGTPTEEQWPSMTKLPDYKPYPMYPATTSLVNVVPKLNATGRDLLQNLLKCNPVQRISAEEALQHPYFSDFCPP
T3 sequence (Q15078 whole entry partner): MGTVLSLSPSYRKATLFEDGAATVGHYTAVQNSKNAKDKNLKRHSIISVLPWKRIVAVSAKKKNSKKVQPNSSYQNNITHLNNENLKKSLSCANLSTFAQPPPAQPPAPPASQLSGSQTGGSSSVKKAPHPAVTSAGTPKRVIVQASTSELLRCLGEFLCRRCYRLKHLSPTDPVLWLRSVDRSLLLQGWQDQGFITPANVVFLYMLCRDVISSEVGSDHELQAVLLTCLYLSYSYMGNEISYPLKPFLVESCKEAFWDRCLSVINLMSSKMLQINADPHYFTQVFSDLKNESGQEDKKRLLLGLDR

Lyn = Lyn (Homo sapiens, UniProt P07948)
Lyn, sequence (P07948 whole entry): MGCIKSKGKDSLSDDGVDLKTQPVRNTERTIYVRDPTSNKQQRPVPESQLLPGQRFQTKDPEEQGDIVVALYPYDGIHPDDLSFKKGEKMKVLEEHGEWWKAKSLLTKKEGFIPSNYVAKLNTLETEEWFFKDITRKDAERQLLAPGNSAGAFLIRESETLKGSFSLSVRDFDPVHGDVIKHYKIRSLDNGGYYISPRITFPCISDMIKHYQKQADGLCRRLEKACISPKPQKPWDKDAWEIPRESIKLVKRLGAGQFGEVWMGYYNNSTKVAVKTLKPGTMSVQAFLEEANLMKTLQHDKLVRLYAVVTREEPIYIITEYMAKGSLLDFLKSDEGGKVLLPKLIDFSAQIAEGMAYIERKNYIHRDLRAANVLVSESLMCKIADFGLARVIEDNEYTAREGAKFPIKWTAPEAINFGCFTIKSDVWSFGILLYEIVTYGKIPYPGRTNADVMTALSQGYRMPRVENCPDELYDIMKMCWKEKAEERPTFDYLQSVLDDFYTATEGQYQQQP

GSK3_beta = target: T4, GSK3_beta (Homo sapiens, UniProt P49841)
T4 construct: gene GSK3B
T4 sequence (P49841 whole entry): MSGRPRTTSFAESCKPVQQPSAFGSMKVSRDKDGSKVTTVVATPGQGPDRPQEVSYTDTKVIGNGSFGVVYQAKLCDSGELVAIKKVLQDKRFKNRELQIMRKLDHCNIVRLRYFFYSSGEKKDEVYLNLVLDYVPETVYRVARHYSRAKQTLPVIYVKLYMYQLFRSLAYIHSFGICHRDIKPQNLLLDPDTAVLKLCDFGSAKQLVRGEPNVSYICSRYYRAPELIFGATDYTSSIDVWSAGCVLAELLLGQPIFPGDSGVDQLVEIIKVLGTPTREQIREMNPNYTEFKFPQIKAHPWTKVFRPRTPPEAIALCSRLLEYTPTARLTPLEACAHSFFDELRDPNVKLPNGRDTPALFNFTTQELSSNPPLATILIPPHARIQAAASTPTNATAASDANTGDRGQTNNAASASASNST

TBK1 = target: T5, TBK1 (Homo sapiens, UniProt Q9UHD2)
T5 sequence (Q9UHD2 1-729): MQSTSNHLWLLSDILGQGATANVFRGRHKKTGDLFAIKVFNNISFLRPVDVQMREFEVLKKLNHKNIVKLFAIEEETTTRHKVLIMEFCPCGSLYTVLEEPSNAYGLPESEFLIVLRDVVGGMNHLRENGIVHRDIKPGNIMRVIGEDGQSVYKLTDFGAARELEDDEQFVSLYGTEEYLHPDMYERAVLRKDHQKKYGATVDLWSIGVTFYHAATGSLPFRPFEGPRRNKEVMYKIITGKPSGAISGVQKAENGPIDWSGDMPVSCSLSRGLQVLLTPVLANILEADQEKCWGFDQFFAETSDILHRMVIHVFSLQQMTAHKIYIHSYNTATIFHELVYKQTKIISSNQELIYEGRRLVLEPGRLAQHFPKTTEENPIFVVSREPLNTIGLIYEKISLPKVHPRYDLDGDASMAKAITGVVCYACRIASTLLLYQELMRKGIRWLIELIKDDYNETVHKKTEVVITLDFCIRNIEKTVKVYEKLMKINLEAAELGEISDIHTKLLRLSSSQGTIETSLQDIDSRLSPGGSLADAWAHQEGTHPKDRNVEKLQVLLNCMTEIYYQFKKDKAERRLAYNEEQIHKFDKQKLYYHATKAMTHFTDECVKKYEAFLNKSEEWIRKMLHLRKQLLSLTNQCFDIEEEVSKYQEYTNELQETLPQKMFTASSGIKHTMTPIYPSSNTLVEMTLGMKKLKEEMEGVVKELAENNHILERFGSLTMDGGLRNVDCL

B-Raf = target: T6, B-Raf (Homo sapiens, UniProt P15056)
T6 construct: gene BRAF
T6 sequence (P15056 whole entry): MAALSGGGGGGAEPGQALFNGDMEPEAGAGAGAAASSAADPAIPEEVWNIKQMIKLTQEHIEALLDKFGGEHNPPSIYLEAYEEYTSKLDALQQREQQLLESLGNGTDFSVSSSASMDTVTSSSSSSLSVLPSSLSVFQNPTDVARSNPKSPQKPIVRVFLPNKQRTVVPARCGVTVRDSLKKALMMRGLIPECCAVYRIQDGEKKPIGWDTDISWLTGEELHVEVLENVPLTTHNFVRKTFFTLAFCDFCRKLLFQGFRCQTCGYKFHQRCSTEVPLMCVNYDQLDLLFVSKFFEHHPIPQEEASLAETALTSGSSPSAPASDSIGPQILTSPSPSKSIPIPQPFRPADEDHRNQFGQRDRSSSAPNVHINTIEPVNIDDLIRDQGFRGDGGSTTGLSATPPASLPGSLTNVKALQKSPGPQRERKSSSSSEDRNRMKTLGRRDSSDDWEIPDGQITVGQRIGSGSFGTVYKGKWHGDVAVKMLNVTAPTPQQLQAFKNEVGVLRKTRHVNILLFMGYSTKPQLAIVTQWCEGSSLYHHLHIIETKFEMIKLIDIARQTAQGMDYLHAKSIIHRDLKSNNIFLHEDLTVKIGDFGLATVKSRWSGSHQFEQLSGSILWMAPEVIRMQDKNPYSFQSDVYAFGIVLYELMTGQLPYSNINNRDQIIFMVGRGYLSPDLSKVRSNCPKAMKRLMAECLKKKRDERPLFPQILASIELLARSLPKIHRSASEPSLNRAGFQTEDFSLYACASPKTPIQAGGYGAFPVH

CDK1/cyclinB = CDK1/cyclinB (Homo sapiens, UniProt P06493)
CDK1/cyclinB, sequence (P06493 whole entry): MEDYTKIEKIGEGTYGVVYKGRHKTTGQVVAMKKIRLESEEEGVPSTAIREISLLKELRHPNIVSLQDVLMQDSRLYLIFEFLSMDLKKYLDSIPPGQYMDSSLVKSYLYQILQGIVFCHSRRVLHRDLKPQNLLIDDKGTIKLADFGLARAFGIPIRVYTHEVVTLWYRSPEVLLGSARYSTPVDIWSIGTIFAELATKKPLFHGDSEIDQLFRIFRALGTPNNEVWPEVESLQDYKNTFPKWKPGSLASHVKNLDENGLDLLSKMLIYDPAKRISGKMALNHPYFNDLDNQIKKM
CDK1/cyclinB, sequence (P14635 whole entry partner): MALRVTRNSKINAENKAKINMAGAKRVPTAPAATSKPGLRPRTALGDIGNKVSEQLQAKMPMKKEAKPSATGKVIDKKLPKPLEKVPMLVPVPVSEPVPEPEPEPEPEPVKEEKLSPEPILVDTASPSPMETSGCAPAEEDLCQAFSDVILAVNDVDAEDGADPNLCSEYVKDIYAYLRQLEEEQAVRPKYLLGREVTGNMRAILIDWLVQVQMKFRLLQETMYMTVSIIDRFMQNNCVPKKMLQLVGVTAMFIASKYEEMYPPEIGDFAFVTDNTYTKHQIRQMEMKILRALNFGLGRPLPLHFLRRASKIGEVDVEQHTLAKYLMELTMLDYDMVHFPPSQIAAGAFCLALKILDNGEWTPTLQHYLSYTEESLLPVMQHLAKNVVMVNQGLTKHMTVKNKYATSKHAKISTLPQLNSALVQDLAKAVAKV

PKA = target: T7, PKA (Homo sapiens, UniProt P17612)
T7 construct: gene PRKACA

JAK1, sequence (P23458 whole entry): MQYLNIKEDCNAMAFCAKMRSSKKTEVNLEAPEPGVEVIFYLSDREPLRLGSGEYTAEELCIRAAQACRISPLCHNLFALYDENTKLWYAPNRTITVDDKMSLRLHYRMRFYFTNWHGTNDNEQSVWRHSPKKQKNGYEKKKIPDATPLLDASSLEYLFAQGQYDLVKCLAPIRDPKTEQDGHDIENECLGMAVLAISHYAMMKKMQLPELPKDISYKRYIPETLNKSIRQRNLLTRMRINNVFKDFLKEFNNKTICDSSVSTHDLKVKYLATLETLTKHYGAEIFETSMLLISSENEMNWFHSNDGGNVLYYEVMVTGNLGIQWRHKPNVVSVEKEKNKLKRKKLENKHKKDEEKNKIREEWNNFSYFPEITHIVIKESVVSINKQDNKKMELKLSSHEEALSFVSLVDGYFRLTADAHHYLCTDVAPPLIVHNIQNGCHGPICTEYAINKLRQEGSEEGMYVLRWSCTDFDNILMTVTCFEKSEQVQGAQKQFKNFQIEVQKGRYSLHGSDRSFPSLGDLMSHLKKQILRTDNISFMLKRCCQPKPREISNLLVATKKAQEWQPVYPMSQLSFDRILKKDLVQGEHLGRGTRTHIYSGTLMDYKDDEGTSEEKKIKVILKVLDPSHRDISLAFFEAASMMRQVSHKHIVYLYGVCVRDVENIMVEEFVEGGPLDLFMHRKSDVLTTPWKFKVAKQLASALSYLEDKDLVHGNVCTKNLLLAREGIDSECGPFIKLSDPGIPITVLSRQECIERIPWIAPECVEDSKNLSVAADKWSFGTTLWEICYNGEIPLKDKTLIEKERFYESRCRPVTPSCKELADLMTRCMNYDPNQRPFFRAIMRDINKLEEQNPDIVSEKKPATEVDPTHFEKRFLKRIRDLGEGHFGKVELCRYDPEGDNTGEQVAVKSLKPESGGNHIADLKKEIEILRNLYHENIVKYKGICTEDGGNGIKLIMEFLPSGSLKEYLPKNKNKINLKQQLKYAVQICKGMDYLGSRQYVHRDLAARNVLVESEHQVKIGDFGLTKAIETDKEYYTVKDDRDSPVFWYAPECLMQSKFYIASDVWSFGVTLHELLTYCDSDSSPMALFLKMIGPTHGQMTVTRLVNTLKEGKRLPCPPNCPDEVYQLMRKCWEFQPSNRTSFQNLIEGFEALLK
Fgr, sequence (P09769 whole entry): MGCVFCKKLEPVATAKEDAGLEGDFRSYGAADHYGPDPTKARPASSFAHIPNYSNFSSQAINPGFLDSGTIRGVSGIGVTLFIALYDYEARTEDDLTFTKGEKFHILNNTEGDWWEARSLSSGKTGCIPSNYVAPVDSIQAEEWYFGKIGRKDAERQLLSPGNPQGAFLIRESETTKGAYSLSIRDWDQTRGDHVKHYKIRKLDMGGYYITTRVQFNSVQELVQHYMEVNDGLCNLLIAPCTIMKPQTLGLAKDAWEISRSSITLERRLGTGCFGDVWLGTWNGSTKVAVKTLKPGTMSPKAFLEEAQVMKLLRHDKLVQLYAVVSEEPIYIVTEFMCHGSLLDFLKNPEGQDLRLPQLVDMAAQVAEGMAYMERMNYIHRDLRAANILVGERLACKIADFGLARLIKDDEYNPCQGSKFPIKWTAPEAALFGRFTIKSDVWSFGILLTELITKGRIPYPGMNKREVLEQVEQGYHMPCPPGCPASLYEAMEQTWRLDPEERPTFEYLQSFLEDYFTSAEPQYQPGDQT

| inhibition at 1 µM (Fgr) | inhibition at 1 µM (JAK1) | inhibition at 1 µM (IKK_beta) | inhibition at 1 µM (CHK2) | inhibition at 1 µM (CDK5/p25) | inhibition at 1 µM (Lyn) | inhibition at 1 µM (GSK3_beta) | inhibition at 1 µM (TBK1) | inhibition at 1 µM (B-Raf) | inhibition at 1 µM (CDK1/cyclinB) | inhibition at 1 µM (PKA) | SMILES |
| --- | --- | --- | --- | --- | --- | --- | --- | --- | --- | --- | --- |
| 6% | 0.5% | 0% | 8% | 4% | 13% | 7.5% | 0% | 5.5% | 7.5% | -8% | CC#CC(=O)Nc1cccc2c(Oc3ncccc3-c3ccnc(N[C@H]4CCCNC4)n3)c(C)ccc12 [G-7658] |
| 77.1% | 68.7% | 80.4% | 95% | 100% | 87.1% | 99.1% | 95.7% | 81.2% | 96.5% | 43% | O=c1cc(-c2n[nH]c3ncc(-c4c(F)cccc4F)cc23)nc(N2CCC(O)CC2)[nH]1 [G-9807] |

| SMILES | inhibition at 1 µM (Fgr) | inhibition at 1 µM (JAK1) | inhibition at 1 µM (IKK_beta) | inhibition at 1 µM (CHK2) | inhibition at 1 µM (CDK5/p25) | inhibition at 1 µM (Lyn) | inhibition at 1 µM (GSK3_beta) | inhibition at 1 µM (TBK1) | inhibition at 1 µM (B-Raf) | inhibition at 1 µM (CDK1/cyclinB) | inhibition at 1 µM (PKA) |
| --- | --- | --- | --- | --- | --- | --- | --- | --- | --- | --- | --- |
| CCOC(=O)Nc1cccc2c(Oc3ncccc3-c3ccnc(N[C@H]4CCCNC4)n3)c(C)ccc12 [G-1749] | 1.5% | -4% | -2% | 12% | 3.5% | 6.5% | 0.5% | -0.5% | 9.5% | 6.5% | -9% |
